According to ChEMBL document CHEMBL1124014, “Synthesis of (aryloxy)alkylamines. 2. Novel imidazo-fused heterocycles with calcium channel blocking and local anesthetic activity” (J Med Chem, 1988):
Calls of active or inactive are those of the source. The rule behind the calls is not given here.

Key:
[1] = system: Mus musculus; assay: Concentration causing local anesthetic activity in mice; format: functional, organism-based
[2] = system: Mus musculus; assay: Concentration causing local anesthetic activity in mice; inactive; format: functional, organism-based
[3] = biological target: T1, Voltage-dependent L-type calcium channel subunit alpha-1C (Oryctolagus cuniculus, UniProt P15381); assay: Inhibition of [3H]nitrendipine binding to calcium channels in Rabbit cardiac muscle.; format: tissue-based, Muscle tissue
T1 sequence (P15381 whole entry): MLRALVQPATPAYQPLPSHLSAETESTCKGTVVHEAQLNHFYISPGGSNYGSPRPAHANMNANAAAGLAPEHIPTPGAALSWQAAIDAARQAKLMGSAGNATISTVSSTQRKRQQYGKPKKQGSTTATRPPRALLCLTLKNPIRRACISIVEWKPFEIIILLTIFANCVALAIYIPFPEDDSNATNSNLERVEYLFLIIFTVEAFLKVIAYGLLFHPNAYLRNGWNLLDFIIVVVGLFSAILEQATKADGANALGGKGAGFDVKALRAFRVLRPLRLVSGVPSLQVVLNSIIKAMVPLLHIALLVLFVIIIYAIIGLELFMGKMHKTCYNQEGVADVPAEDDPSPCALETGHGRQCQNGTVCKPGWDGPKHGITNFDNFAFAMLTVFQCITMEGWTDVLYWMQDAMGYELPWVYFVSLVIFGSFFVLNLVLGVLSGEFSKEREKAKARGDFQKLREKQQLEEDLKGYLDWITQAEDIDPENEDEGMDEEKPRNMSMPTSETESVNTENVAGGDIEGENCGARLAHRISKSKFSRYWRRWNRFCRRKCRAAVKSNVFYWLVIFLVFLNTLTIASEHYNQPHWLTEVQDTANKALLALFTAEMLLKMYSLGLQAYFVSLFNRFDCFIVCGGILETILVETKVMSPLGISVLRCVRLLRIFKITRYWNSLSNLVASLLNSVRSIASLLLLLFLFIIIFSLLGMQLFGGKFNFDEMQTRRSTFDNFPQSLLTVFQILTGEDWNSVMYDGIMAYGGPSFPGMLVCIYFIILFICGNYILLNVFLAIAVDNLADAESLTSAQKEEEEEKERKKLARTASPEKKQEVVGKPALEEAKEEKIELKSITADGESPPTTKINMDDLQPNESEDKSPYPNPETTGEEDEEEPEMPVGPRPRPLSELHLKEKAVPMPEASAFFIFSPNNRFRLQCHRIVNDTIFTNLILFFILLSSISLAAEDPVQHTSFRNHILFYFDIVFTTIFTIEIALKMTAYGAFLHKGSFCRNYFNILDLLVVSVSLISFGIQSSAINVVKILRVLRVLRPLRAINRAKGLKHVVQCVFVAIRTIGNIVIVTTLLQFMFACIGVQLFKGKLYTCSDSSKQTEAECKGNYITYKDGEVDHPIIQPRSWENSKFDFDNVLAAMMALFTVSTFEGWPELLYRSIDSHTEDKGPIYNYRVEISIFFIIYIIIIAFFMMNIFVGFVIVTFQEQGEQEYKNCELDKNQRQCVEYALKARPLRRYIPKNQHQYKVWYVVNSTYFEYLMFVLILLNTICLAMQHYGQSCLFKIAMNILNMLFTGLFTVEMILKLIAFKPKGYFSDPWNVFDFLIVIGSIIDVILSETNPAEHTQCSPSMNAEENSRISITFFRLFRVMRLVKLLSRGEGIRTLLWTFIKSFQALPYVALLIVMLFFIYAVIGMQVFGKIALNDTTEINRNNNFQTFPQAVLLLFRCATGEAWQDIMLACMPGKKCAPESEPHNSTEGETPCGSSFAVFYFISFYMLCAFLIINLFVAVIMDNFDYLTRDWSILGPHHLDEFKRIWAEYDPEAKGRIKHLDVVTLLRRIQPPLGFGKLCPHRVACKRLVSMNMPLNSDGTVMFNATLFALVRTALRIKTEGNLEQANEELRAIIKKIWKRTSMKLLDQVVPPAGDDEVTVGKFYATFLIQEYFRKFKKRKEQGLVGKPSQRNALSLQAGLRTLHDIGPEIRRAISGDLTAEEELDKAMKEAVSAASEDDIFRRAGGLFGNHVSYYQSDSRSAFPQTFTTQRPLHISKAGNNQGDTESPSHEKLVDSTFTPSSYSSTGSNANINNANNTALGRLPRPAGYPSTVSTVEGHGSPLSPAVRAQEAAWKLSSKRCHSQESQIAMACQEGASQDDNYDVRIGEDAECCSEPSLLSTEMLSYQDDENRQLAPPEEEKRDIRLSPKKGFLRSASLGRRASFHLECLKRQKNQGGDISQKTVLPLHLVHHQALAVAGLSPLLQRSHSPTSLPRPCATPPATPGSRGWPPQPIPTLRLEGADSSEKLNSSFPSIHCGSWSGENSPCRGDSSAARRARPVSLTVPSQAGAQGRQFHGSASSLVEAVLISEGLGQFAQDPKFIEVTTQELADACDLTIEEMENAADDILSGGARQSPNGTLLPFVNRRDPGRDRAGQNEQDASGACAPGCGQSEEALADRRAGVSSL

[4] = species: Canis familiaris; assay: Percent inhibition of calcium-dependent potassium-polarized smooth muscle contraction in canine trachea; format: functional, Canis lupus familiaris, Muscle tissue
[5] = Inhibition of [3H]nitrendipine binding to calcium channels of rabbit cardiac muscle at 68 uM; format: functional; details: Oryctolagus cuniculus, Muscle tissue
[6] = biological target: T1, Voltage-dependent L-type calcium channel subunit alpha-1C; assay: Inhibition of [3H]nitrendipine binding to calcium channels of rabbit cardiac muscle at 10 uM; format: functional, tissue-based, Muscle tissue; details: probe [3H]nitrendipine

Row | SMILES | Concentration [1] | further results
1 | CCCCN(CCCC)CCCOc1ccc(C(=O)c2cnc3ccc(Br)cn23)cc1 | 0.1% | 
2 | CCCCN(CCCC)CCCOc1ccc(-c2cn3ccc(C)nc3n2)cc1 |  | Concentration [2]: inactive
3 | CCCCN(CCCC)CCCOc1ccc(C(=O)c2cnc3nc(C)ccn23)cc1 |  | Concentration [2]: inactive; IC50 [3]: 6.1 µM
4 | CCCCN(CCCC)CCCOc1ccc(-c2cn3ccsc3n2)cc1 | > 1% | 
5 | CCCCN(CCCC)CCCCOc1ccc(-c2cn3cccc(C)c3n2)cc1 | 1% | 
6 | CCCCN(CCCC)CCCOc1ccc(-c2cn3cccc([N+](=O)[O-])c3n2)cc1 | > 1% | 
7 | Cc1cccn2cc(-c3ccc(OCCCN4CCCCC4)cc3)nc12 | 1% | 
8 | Cc1cccn2cc(-c3ccc(OCCCn4ccnc4)cc3)nc12 | > 1% | 
9 | CCCCN(CCCC)CCCOc1ccc(C(=O)c2cn3cc(Br)ccc3n2)cc1.Cl.Cl | 1% | Inhibition [4]: 50%
10 | CCCCN(CCCC)CCCOc1ccc(-c2cn3ccc(C)cc3n2)cc1 | 0.1% | 
11 | COc1ccc(CCN(C)CCCC(C#N)(c2ccc(OC)c(OC)c2)C(C)C)cc1OC (stereo not drawn) | 1% | Inhibition [4]: 93%
12 | CCCCN(CCCC)CCCOc1ccc(-c2cn3c(C)cccc3n2)cc1 | 0.1% | 
13 | CCCCN(CCCC)CCCOc1ccc(-c2cn3cccc(C)c3n2)c(C)c1 | 0.1% | 
14 | CCCCN(CCCC)CCCOc1ccc(-c2nc3sccn3c2C)cc1 | 0.1% | 
15 | CCCCN(CCCC)CCCOc1ccc(-c2cn3cc(C)ccc3n2)cc1 | 0.1% | 
16 | CCCCN(CCCC)CCCOc1ccc(-c2nc3c(C)cccn3c2C)cc1 | 0.1% | 
17 | CCCCN(CCCC)CCCOc1ccc(-c2cn3cccnc3n2)cc1 | > 1% | inhibition at 68 µM [5]: 43%
18 | CC(C)COCC(CN(Cc1ccccc1)c1ccccc1)N1CCCC1 (stereo not drawn) [BEPRIDIL] |  | Inhibition [4]: 81%; IC50 [3]: 22 µM
19 | CCCCN(CCCC)CCCOc1ccc(-c2cn3cccc(C)c3n2)cc1OC | 0.01% | 
20 | CCCCN(CCCC)CCCOc1ccc(-c2cn3cccc(C)c3n2)cc1C | 0.1% | 

Row | SMILES | Concentration [1] | further results
21 | CCCCN(CCCC)CCCOc1ccc(-c2cn3cccc(C)c3n2)cc1 | 0.01% | 
22 | CCCCN(CCCC)CCCOc1ccc(-c2cn3nc(C)sc3n2)cc1 |  | Concentration [2]: inactive
23 | COc1ccc([C@@H]2Sc3ccccc3N(CCN(C)C)C(=O)[C@@H]2OC(C)=O)cc1 [DILTIAZEM] |  | Inhibition [4]: 96%
24 | CCCCN(CCCC)CCCOc1ccc(-c2cn3cccc(O)c3n2)cc1 | 0.1% | 
25 | CCCCN(CCCC)CCCOc1ccc(-c2cn3cccc(OCc4ccccc4)c3n2)cc1 | 0.1% | inhibition at 10 µM [6]: 45%
26 | CCCN(CCC)CCCOc1ccc(-c2cn3cccc(C)c3n2)cc1 | 0.1% | 
27 | CCCCN(CCCC)CCCOc1ccc(-c2cn3c(n2)sc2ccccc23)cc1.Cl.Cl | 1% | Inhibition [4]: 15%
28 | COC(=O)C1=C(C)NC(C)=C(C(=O)OC)C1c1ccccc1[N+](=O)[O-] [NIFEDIPINE] | > 1% | Inhibition [4]: 95%
29 | CCCCN(CCCC)CCCOc1ccc(-c2cn3nccnc3n2)cc1.Cl.Cl |  | Inhibition [4]: 46%; Concentration [2]: inactive
30 | Cc1cccn2cc(-c3ccc(OCCCN4CCOCC4)cc3)nc12 | > 1% | 
31 | CCCCN(CCCC)CCCOc1ccc(C(=O)c2cn3ccc(C)cc3n2)cc1 | 1% | 
32 | CCCCN(CCCC)CCCOc1c(OC)cc(-c2cn3cccc(C)c3n2)cc1OC | 0.1% | 
33 | Cc1cccn2cc(-c3ccc(OCCCN(C)C)cc3)nc12 | 1% | 
34 | CCN(CC)CC(=O)Nc1c(C)cccc1C | 1% | 
35 | CCCCN(CCCC)CCCOc1ccc(C(=O)c2cnc3c(C)cccn23)cc1 | 0.1% | IC50 [3]: 0.5 µM
36 | CCCCN(CCCC)CCCOc1ccc(-c2cn3ccccc3n2)cc1.Cl | 0.1% | Inhibition [4]: 5.4%
37 | CCCCN(CCCC)CCCOc1ccc(C(=O)c2cn3cccc(C)c3n2)cc1 | 1% | IC50 [3]: 6 µM
38 | CCCCN(CCCC)CCCOc1ccc(-c2cn3cc(Br)ccc3n2)cc1 | 1% | 
39 | CCCCN(CCCC)CCCOc1ccc(C(=O)c2cnc3ncccn23)cc1.Cl.Cl |  | Inhibition [4]: 44%; Concentration [2]: inactive
40 | CCCCCN(CCCCC)CCCOc1ccc(-c2cn3cccc(C)c3n2)cc1 | 0.1% | 
